Assay results as given in US4642379A, “Intermediates for anticonvulsant agents” (Eli Lilly and Company, priority 1985, dated 1987).

system: electroshock induced convulsion; assay: electroshock induced convulsion inhibition assay (E.S.); type: in vivo, mice (Cox standard strain albino male); conditions: Mus musculus; oral dose (gavage), mice; 0.1 second, 50 milliampere electroshock through corneal electrodes; at time of optimal response
Description: In the elctroshock induced convulsion inhibition assay (E.S.), the compound to be tested was suspended in acacia and administered by gavage to each of ten Cox standard strain albino male mice (18-24 g) at the dose level being investigated. […] The animals were examined and evaluated immediately after the electroshock for the occurrence of clonic, flexor tonic, or extensor tonic convulsions, or death and the ED50 was determined for each compound as the dose which inhibited the occurrence of extensor tonic convulsions in one half of the animals immediately after the electroshock.

| Structure (SMILES) | ED50 [mg/kg] |
| --- | --- |
| CC(=O)Nc1ccc(C(=O)Nc2c(C)cccc2C)cc1 [Example 1, 4-(Acetylamino)-N-(2,6-dimethylphenyl)benzamide] | 3.6 |
| CCC(=O)Nc1ccc(C(=O)Nc2c(C)cccc2C)cc1 [Example 2, N-(2,6-dimethylphenyl)-4-[(1-oxopropyl)amino]benzamide] | 10.5 |
| Cc1cccc(C)c1NC(=O)c1ccc(NC(=O)C(C)C)cc1 [Example 3, N-(2,6-dimethylphenyl)-4-[(2-methyl-1-oxopropyl)amino]benzamide] | 8.2 |
| CC(=O)Nc1ccc(C(=O)N[C@@H](C)c2ccccc2)cc1 [Example 4, (S)-4-(acetylamino)-N-(1-phenylethyl)benzamide] | 22.2 |
| CC(=O)Nc1ccc(C(=O)NC(C)c2ccccc2)cc1 (stereo not drawn) [Example 6, 4-(Acetylamino)-N-(1-phenylethyl)benzamide] | 54 |
| CC(=O)Nc1ccc(C(=O)Nc2c(C)cccc2C)cc1C [Example 11, 4-(Acetylamino)-N-(2,6-dimethylphenyl)-3-methylbenzamide] | 4.5 |
| Cc1cccc(C)c1NC(=O)c1ccc(NC(=O)CN(C)C)cc1 [Example 12, 4-([(Dimethylamino)acetyl]amino)-N-(2,6-dimethylphenyl)benzamide] | 8 |
| CNCC(=O)Nc1ccc(C(=O)Nc2c(C)cccc2C)cc1.O=C(O)C(=O)O [Example 13, N-(2,6-dimethylphenyl)-4-([(methylamino)acetyl]amino)benzamide ethanedioate] | 6.3 |
| CCN(CC)CC(=O)Nc1ccc(C(=O)Nc2c(C)cccc2C)cc1.O=C(O)C(=O)O [Example 14, 4-([(Diethylamino)acetyl]amino)-N-(2,6-dimethylphenyl)benzamide ethanedioate] | 3.6 |
| Cc1cccc(C)c1NC(=O)c1ccc(NC(=O)CN2CCCCC2)cc1 [Example 15, N-[4-([(2,6-Dimethylphenyl)amino]carbonyl)phenyl]-1-piperidineacetamide] | 9.5 |
| Cc1cccc(C)c1NC(=O)c1ccc(NC(=O)CN2CCCC2)cc1 [Example 16, N-[4-([(2,6-Dimethylphenyl)amino]carbonyl)phenyl]-1-pyrrolidineacetamide] | 3.75 |
| Cc1cccc(C)c1NC(=O)c1ccc(NC(=O)CN2CCN(C)CC2)cc1 [Example 17, N-[4-([(2,6-Dimethylphenyl)amino]carbonyl)phenyl]-4-methyl-1-piperazineacetamide] | > 112 |
| Cc1cccc(C)c1NC(=O)c1ccc(NC(=O)CN2CCOCC2)cc1 [Example 18, N-[4-([(2,6-Dimethylphenyl)amino]carbonyl)phenyl]-4-morpholineacetamide] | 17.5 |
| Cc1cccc(C)c1NC(=O)c1ccc(NC(=O)CCN2CCCC2)cc1 [Example 19, N-[4-([(2,6-Dimethylphenyl)amino]carbonyl)phenyl]-1-pyrrolidinepropanamide] | 26.9 |
| Cc1cccc(C)c1NC(=O)c1ccc(NC(=O)C(C)N2CCCC2)cc1 (stereo not drawn) [Example 20] | 42.5 |
| Cc1cccc(C)c1NC(=O)c1ccc(NC(=O)CN2CCCCCC2)cc1 [Example 21, N-[4-([(2,6-Dimethylphenyl)amino]carbonyl)phenyl]hexahydro-1-H-azepine-1-acetamide] | 5.1 |
| CCNCC(=O)Nc1ccc(C(=O)NC(C)c2ccccc2)cc1.Cl (stereo not drawn) [Example 22, 4-([(Ethylamino)acetyl]amino)-N-(1-phenylethyl)benzamide hydrochloride] | 28 |
| CCNCC(=O)Nc1ccc(C(=O)Nc2c(C)cccc2C)cc1 [Example 23, N-(2,6-Dimethylphenyl)-4-([(ethylamino)acetyl]amino)benzamide] | 3.2 |

same assay, conditions: oral dose (gavage), mice; 0.1 second, 50 milliampere electroshock through corneal electrodes; at time of optimal response

| Structure (SMILES) | Electroshock ED50 (mg/kg) |
| --- | --- |
| CC(=O)Nc1ccc(C(=O)N[C@H](C)c2ccccc2)cc1 [Example 5] | ca. 100 mg/kg |

same assay, conditions: time between oral dosing and electroshock

| Structure (SMILES) | Time After dosing (minutes) providing an optimal response [min] |
| --- | --- |
| CC(=O)Nc1ccc(C(=O)N[C@H](C)c2ccccc2)cc1 [Example 5] | 60 |

system: not given; assay: not given; conditions: man; cited from earlier work

| Structure (SMILES) | plasma level at which ataxia is obvious [ng/mL] | plasma level at which lethargy is apparent | plasma level at which nystagmus is seen | plasma level at which seizures are controlled [µg/mL] |
| --- | --- | --- | --- | --- |
| O=C1NC(=O)C(c2ccccc2)(c2ccccc2)N1 [phenytoin] | 30000 | about 40 mcg/ml | around 20 mcg/ml | ≥ 10 |
